Test results taken from patent US10538555B2, “Macrocyclic inhibitors of the PD-1/PD-L1 and CD80(B7-1)/PD-L1 protein/protein interactions” (BRISTOL-MYERS SQUIBB COMPANY, priority 2014, dated 2020).
Where a SMILES comes first, the peptide text is derived from it. Bridges are numbered along the chain shown (N, C = ends). [ ]: non-standard residue; d: D form. ξ: configuration not given here. Trp(1-CH2COOH) = N[C@@H](Cc1cn(CC(=O)O)c2ccccc12)C(=O)O; Phe(3,4,5-F3) = N[C@@H](Cc1cc(F)c(F)c(F)c1)C(=O)O; Phe(3,4-Cl2) = N[C@@H](Cc1ccc(Cl)c(Cl)c1)C(=O)O; NMePhe(4-F) = CN[C@@H](Cc1ccc(F)cc1)C(=O)O; 2Nal = N[C@@H](Cc1ccc2ccccc2c1)C(=O)O; d(cisHyp) = O=C(O)[C@H]1C[C@@H](O)CN1; Hyp = O=C(O)[C@@H]1C[C@@H](O)CN1; NMeF = CN[C@@H](Cc1ccccc1)C(=O)O; dHyp = O=C(O)[C@H]1C[C@H](O)CN1; NMeNle = CCCC[C@H](NC)C(=O)O; Pip = O=C(O)[C@@H]1CCCCN1; dPip = O=C(O)[C@H]1CCCCN1; NMeA = CN[C@@H](C)C(=O)O; Orn = NCCC[C@H](N)C(=O)O; Dab = NCC[C@H](N)C(=O)O; Dap = NC[C@H](N)C(=O)O; ξC = NC(CS)C(=O)O; Sar = CNCC(=O)O

Molecular target: T1, Human PD-L1/PD-1 (Homo sapiens, UniProt Q9NZQ7)
T1 construct: TVMV protease cleavage site (C); made in house; host or cells: HEK293T cells
Experiment: HTRF Human PD-L1/PD-1 binding assay (PD-1-Ig/PD-L1-His)
Details: PD-L1-His 10 nM, PD-1-Ig 20 nM; class symbol; read-out: HTRF Human PD-L1/PD-1 Binding Assay IC50 Range
In short: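 Compound preincubated 15 min with PD-L1-His (10 nM final), then PD-1-Ig (20 nM final) added for 15 min in dPBS with 0.1% BSA and 0.05% Tween-20. Detection by Eu-cryptate anti-Ig (1 nM) and APC anti-His (20 nM) after 30 min; 665/620 nm HTRF ratio. Proteins expressed in HEK293T.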

T1 sequence (Q9NZQ7 with tags, fused parts or gaps): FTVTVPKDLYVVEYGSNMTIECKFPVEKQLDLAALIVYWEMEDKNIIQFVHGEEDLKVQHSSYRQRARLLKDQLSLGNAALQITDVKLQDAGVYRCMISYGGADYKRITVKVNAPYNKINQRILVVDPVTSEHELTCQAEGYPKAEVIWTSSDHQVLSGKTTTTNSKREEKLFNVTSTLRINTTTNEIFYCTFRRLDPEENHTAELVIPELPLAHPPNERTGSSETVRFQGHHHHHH

Row | Structure (SMILES) | IC50
1 | CCCC[C@H]1C(=O)N2C[C@H](O)C[C@@H]2C(=O)N[C@@H](CC(=O)O)C(=O)N[C@@H](C(C)C)C(=O)N(C)[C@@H](Cc2ccccc2)C(=O)N[C@@H](CCC(N)=O)C(=O)N2C[C@H](O)C[C@@H]2C(=O)N[C@@H](Cc2c[nH]c3ccccc23)C(=O)N[C@@H](Cc2ccc(O)cc2)C(=O)N[C@@H](CCC(=O)O)C(=O)N[C@H](C(=O)NCC(N)=O)CSCC(=O)N[C@@H](Cc2cc(F)c(F)c(F)c2)C(=O)N(C)[C@@H](Cc2ccccc2)C(=O)N1C [Example 9357] ({CH2CO}-[Phe(3,4,5-F3)][NMeF][NMeNle][d(cisHyp)]DV[NMeF]Q[d(cisHyp)]WYECG-NH2; thioether N-13) | 10 to 99.9 nM
2 | CCCC[C@H]1C(=O)N(C)[C@@H](CCCC)C(=O)N[C@@H](CC(C)C)C(=O)N[C@H](C(=O)NCC(N)=O)CSCC(=O)N[C@@H](Cc2ccc(O)cc2)C(=O)N2CCCC[C@@H]2C(=O)N[C@@H](CC(=O)O)C(=O)N2CCC[C@H]2C(=O)N[C@@H](Cc2cnc[nH]2)C(=O)N[C@@H](CCCCN)C(=O)N2C[C@H](O)C[C@H]2C(=O)N[C@@H](Cc2c[nH]c3ccccc23)C(=O)N[C@@H](CCCCN)C(=O)N[C@@H](Cc2cn(CC(=O)O)c3ccccc23)C(=O)N1C [Example 1296] ({CH2CO}-Y[dPip]DPHK[Hyp]WK[Trp(1-CH2COOH)][NMeNle][NMeNle]LCG-NH2; thioether N-14) | 1 to 9.9 nM
3 | CCCC[C@H]1C(=O)N2C[C@@H](O)C[C@@H]2C(=O)N[C@@H](CC(=O)O)C(=O)N[C@@H](C(C)C)C(=O)N(C)[C@@H](Cc2ccc(F)cc2)C(=O)N[C@@H](CCCN)C(=O)N2CCC[C@@H]2C(=O)N[C@@H](Cc2c[nH]c3ccccc23)C(=O)N[C@@H](Cc2ccc(O)cc2)C(=O)N[C@@H](CCCN)C(=O)N[C@H](C(=O)NCC(N)=O)CSCC(=O)N[C@@H](Cc2cc(F)c(F)c(F)c2)C(=O)N(C)[C@@H](Cc2ccccc2)C(=O)N1C [Example 10120] ({CH2CO}-[Phe(3,4,5-F3)][NMeF][NMeNle][dHyp]DV[NMePhe(4-F)][Orn][dP]WY[Orn]CG-NH2; thioether N-13) | 1 to 9.9 nM
4 | CCCC[C@H]1C(=O)N(C)[C@@H](CCCC)C(=O)N[C@@H](CCC(=O)O)C(=O)N[C@H](C(=O)NCC(N)=O)CSCC(=O)N[C@@H](Cc2ccc(O)cc2)C(=O)N(C)[C@@H](C)C(=O)N[C@@H](CC(N)=O)C(=O)N2CCC[C@H]2C(=O)N[C@@H](CO)C(=O)N[C@@H](CC(C)C)C(=O)N2C[C@H](O)C[C@H]2C(=O)N[C@@H](Cc2c[nH]c3ccccc23)C(=O)N[C@@H](CCC(=O)O)C(=O)N[C@@H](Cc2c[nH]c3ccccc23)C(=O)N1C [Example 5216] ({CH2CO}-Y[NMeA]NPSL[Hyp]WEW[NMeNle][NMeNle]ECG-NH2; thioether N-14) | 1 to 9.9 nM
5 | CCCC[C@H]1C(=O)N2CCC[C@@H]2C(=O)N[C@@H](CC(=O)O)C(=O)N[C@@H](C(C)C)C(=O)N(C)[C@@H](Cc2ccccc2)C(=O)N[C@@H](CCC(=O)O)C(=O)N2CCCC[C@@H]2C(=O)N[C@@H](Cc2c[nH]c3ccccc23)C(=O)N[C@@H](Cc2ccc(O)cc2)C(=O)N[C@@H](CC(C)C)C(=O)N[C@H](C(=O)NCC(N)=O)CSCC(=O)N[C@@H](Cc2cc(F)c(F)c(F)c2)C(=O)N(C)[C@@H](Cc2ccc(F)cc2)C(=O)N1C [Example 10561] ({CH2CO}-[Phe(3,4,5-F3)][NMePhe(4-F)][NMeNle][dP]DV[NMeF]E[dPip]WYLCG-NH2; thioether N-13) | 1 to 9.9 nM
6 | CCCC[C@H]1C(=O)N(C)[C@@H](CCCC)C(=O)N[C@@H](CC(C)C)C(=O)N[C@H](C(=O)NCC(N)=O)CSCC(=O)N[C@@H](Cc2ccc(O)cc2)C(=O)N(C)[C@@H](C)C(=O)N[C@@H](CC(N)=O)C(=O)N2CCC[C@H]2C(=O)N[C@@H](Cc2cnc[nH]2)C(=O)N[C@@H](CCCCN)C(=O)N2C[C@H](O)C[C@H]2C(=O)N[C@@H](Cc2c[nH]c3ccccc23)C(=O)N[C@@H](CCCCN)C(=O)N[C@@H](Cc2cn(CC(=O)O)c3ccccc23)C(=O)N1C [Example 6204] ({CH2CO}-Y[NMeA]NPHK[Hyp]WK[Trp(1-CH2COOH)][NMeNle][NMeNle]LCG-NH2; thioether N-14) | 1 to 9.9 nM
7 | CCCC[C@H]1C(=O)N(C)CC(=O)N[C@@H](CC(=O)O)C(=O)N[C@@H](C(C)C)C(=O)N(C)[C@@H](Cc2ccccc2)C(=O)N[C@@H](Cc2ccc(O)cc2)C(=O)N(C)CC(=O)N[C@@H](Cc2c[nH]c3ccccc23)C(=O)N[C@@H](Cc2ccc(O)cc2)C(=O)N[C@@H](CC(C)C)C(=O)N[C@H](C(=O)NCC(N)=O)CSCC(=O)N[C@@H](Cc2ccc(Cl)c(Cl)c2)C(=O)N(C)[C@@H](Cc2ccccc2)C(=O)N1C [Example 3246] ({CH2CO}-[Phe(3,4-Cl2)][NMeF][NMeNle][Sar]DV[NMeF]Y[Sar]WYLCG-NH2; thioether N-13) | 10 to 99.9 nM

The next lines start with the values.

Row | IC50 | Structure (SMILES)
8 | 1 to 9.9 nM | CCCC[C@H]1C(=O)N(C)[C@@H](CCCC)C(=O)N[C@@H](CCCNC(=N)N)C(=O)N[C@H](C(=O)NCC(N)=O)CSCC(=O)N[C@@H](Cc2ccc(O)cc2)C(=O)N(C)[C@@H](C)C(=O)N[C@@H](CO)C(=O)N2CCC[C@H]2C(=O)N[C@@H](Cc2cnc[nH]2)C(=O)N[C@@H](CCC(N)=O)C(=O)N2C[C@H](O)C[C@H]2C(=O)N[C@@H](Cc2c[nH]c3ccccc23)C(=O)N[C@@H](CO)C(=O)N[C@@H](Cc2c[nH]c3ccccc23)C(=O)N1C [Example 5178] ({CH2CO}-Y[NMeA]SPHQ[Hyp]WSW[NMeNle][NMeNle]RCG-NH2; thioether N-14)
9 | 10 to 99.9 nM | CCCC[C@H]1C(=O)N2C[C@H](O)C[C@@H]2C(=O)N[C@@H](CC(=O)O)C(=O)N[C@@H](C(C)C)C(=O)N(C)[C@@H](Cc2ccccc2)C(=O)N[C@@H](Cc2ccc(O)cc2)C(=O)N2C[C@H](O)C[C@@H]2C(=O)N[C@@H](Cc2c[nH]c3ccccc23)C(=O)N[C@@H](Cc2ccc(O)cc2)C(=O)N[C@@H](CCC(=O)O)C(=O)N[C@H](C(=O)NCC(N)=O)CSCC(=O)N[C@@H](Cc2cc(F)c(F)c(F)c2)C(=O)N(C)[C@@H](Cc2ccccc2)C(=O)N1C [Example 9326] ({CH2CO}-[Phe(3,4,5-F3)][NMeF][NMeNle][d(cisHyp)]DV[NMeF]Y[d(cisHyp)]WYECG-NH2; thioether N-13)
10 | 10 to 99.9 nM | CCCC[C@H]1C(=O)N2C[C@H](O)C[C@@H]2C(=O)N[C@@H](CC(=O)O)C(=O)N[C@@H](C(C)C)C(=O)N(C)[C@@H](Cc2ccccc2)C(=O)N[C@@H](Cc2ccc(O)cc2)C(=O)N2C[C@H](O)C[C@@H]2C(=O)N[C@@H](Cc2c[nH]c3ccccc23)C(=O)N[C@@H](Cc2ccc(O)cc2)C(=O)N[C@@H](CC(=O)O)C(=O)N[C@H](C(=O)NCC(N)=O)CSCC(=O)N[C@@H](Cc2cc(F)c(F)c(F)c2)C(=O)N(C)[C@@H](Cc2ccccc2)C(=O)N1C [Example 9327] ({CH2CO}-[Phe(3,4,5-F3)][NMeF][NMeNle][d(cisHyp)]DV[NMeF]Y[d(cisHyp)]WYDCG-NH2; thioether N-13)
11 | 1000 to 10000 nM | CCCC[C@H]1C(=O)N(C)CC(=O)N[C@@H](CC(=O)O)C(=O)N[C@@H](C(C)C)C(=O)N(C)[C@@H](Cc2ccccc2)C(=O)N[C@@H](Cc2ccc(O)cc2)C(=O)N(C)CC(=O)N[C@@H](Cc2c[nH]c3ccccc23)C(=O)N[C@@H](Cc2ccc(O)cc2)C(=O)N[C@@H](CC(C)C)C(=O)N[C@H](C(=O)NCC(N)=O)CSCC(=O)N[C@@H](Cc2ccc3ccccc3c2)C(=O)N(C)[C@@H](Cc2ccccc2)C(=O)N1C [Example 3233] ({CH2CO}-[2Nal][NMeF][NMeNle][Sar]DV[NMeF]Y[Sar]WYLCG-NH2; thioether N-13)
12 | 1 to 9.9 nM | CCCC[C@H]1C(=O)N(C)[C@@H](CCCC)C(=O)N[C@@H](CN)C(=O)N[C@H](C(=O)NCC(N)=O)CSCC(=O)N[C@@H](Cc2ccc(O)cc2)C(=O)N(C)[C@@H](C)C(=O)N[C@@H](CC(=O)O)C(=O)N2CCC[C@H]2C(=O)N[C@@H](Cc2cnc[nH]2)C(=O)N[C@@H](CCC(N)=O)C(=O)N2C[C@H](O)C[C@H]2C(=O)N[C@@H](Cc2c[nH]c3ccccc23)C(=O)N[C@@H](CCN)C(=O)N[C@@H](Cc2cn(CC(=O)O)c3ccccc23)C(=O)N1C [Example 5238] ({CH2CO}-Y[NMeA]DPHQ[Hyp]W[Dab][Trp(1-CH2COOH)][NMeNle][NMeNle][Dap]CG-NH2; thioether N-14)
13 | 1 to 9.9 nM | CCCC[C@H]1C(=O)N(C)[C@@H](CCCC)C(=O)N[C@@H](CC(C)C)C(=O)NC(C(=O)NCC(N)=O)CSCC(=O)N[C@@H](Cc2ccc(O)cc2)C(=O)N(C)[C@@H](C)C(=O)N[C@@H](CC(N)=O)C(=O)N2CCC[C@H]2C(=O)N[C@@H](CC(N)=O)C(=O)N[C@@H](CC(C)C)C(=O)N2CCC[C@H]2C(=O)N[C@@H](Cc2c[nH]c3ccccc23)C(=O)N[C@@H](CO)C(=O)N[C@@H](Cc2c[nH]c3ccccc23)C(=O)N1C (stereo partly drawn) [Example 9161] ({CH2CO}-Y[NMeA]NPNLPWSW[NMeNle][NMeNle]L[ξC]G-NH2; thioether N-14)
14 | 10 to 99.9 nM | CCCC[C@H]1C(=O)N(C)[C@@H](CCCC)C(=O)N[C@@H](CN)C(=O)N[C@H](C(=O)NCC(N)=O)CSCC(=O)N[C@@H](Cc2ccc(O)cc2)C(=O)N2CCCC[C@H]2C(=O)N[C@@H](CC(N)=O)C(=O)N2CCC[C@H]2C(=O)N[C@@H](Cc2cnc[nH]2)C(=O)N[C@@H](CCC(N)=O)C(=O)N2C[C@H](O)C[C@H]2C(=O)N[C@@H](Cc2c[nH]c3ccccc23)C(=O)N[C@@H](CCN)C(=O)N[C@@H](Cc2cn(CC(=O)O)c3ccccc23)C(=O)N1C [Example 1301] ({CH2CO}-Y[Pip]NPHQ[Hyp]W[Dab][Trp(1-CH2COOH)][NMeNle][NMeNle][Dap]CG-NH2; thioether N-14)
15 | 1 to 9.9 nM | CCCC[C@H]1C(=O)N(C)[C@@H](CCCC)C(=O)NCC(=O)N[C@H](C(=O)NCC(N)=O)CSCC(=O)N[C@@H](Cc2ccc(O)cc2)C(=O)N(C)[C@@H](C)C(=O)N[C@@H](CC(N)=O)C(=O)N2CCC[C@H]2C(=O)NCC(=O)N[C@@H](CCC(N)=O)C(=O)N2C[C@H](O)C[C@H]2C(=O)N[C@@H](Cc2c[nH]c3ccccc23)C(=O)N[C@@H](CO)C(=O)N[C@@H](Cc2c[nH]c3ccccc23)C(=O)N1C [Example 5175] ({CH2CO}-Y[NMeA]NPGQ[Hyp]WSW[NMeNle][NMeNle]GCG-NH2; thioether N-14)
